The text below walks through data of article PMC3541233 (PLoS ONE, 2013).

Each structure is given as a SMILES string.

The target in the assay is T1, AmPDH (pyranose dehydrogenase, PDH) (Macropsalliota meleagris, UniProt Q3L245).
T1 construct: gene pdh1; for crystals deglycosylated with alpha-mannosidase (577 residues)
In words: anaerobic reduction of enzyme FAD, absorption spectra. To be noted: 20 µM oxidized enzyme, 20 µM substrate, 100 mM NaH2PO4 pH 7.5, 25 °C; C2 accessible. Type of assay: biochemical.

T1 sequence (Q3L245 26-602): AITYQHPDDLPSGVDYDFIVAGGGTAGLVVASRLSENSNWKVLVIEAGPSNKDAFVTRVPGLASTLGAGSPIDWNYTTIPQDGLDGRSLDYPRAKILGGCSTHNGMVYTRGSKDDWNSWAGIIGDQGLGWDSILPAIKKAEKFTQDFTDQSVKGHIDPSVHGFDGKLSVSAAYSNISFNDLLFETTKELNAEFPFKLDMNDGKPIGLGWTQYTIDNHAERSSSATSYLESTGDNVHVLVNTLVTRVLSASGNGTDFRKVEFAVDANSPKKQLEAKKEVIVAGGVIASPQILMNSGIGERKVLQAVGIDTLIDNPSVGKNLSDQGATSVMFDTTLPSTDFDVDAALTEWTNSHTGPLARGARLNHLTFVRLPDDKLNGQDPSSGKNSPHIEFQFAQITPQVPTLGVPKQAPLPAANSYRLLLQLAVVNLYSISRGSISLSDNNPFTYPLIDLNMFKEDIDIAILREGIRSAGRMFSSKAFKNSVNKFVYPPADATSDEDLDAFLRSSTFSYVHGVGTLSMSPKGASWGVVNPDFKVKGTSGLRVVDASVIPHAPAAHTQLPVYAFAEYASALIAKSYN

Consider `OC[C@H]1OC(O)[C@H](O)[C@@H](F)[C@@H]1O` (stereo partly shown), for which the “anaerobic reduction of enzyme FAD, absorption spectra” value is “showing that AmPDH was rapidly reduced, presumably by a hydride moiety at glucose C2”.
